Measured values published in patent US8796470B2 (AbbVie Inc., priority 2010, dated 2014).

Each molecule was assayed against T1, human Cav2.2 (Homo sapiens, UniProt Q00975) (assay: Assessment of calcium channel activity using FLIPR (Ca2+ influx in IMR32 cells)). Conditions: IMR32 cells endogenously expressing human Cav2.2, Calcium 4 dye, 60 minute pre-incubation, 2 μM nifedipine, depolarized with 80 mM KCl, 5 mM CaCl2.
T1 construct: IMR32 cells endogenously expressing human Cav2.2; endogenous in cells; host or cells: IMR32 cells (human neuroblastoma)
T1 sequence (Q00975 whole entry): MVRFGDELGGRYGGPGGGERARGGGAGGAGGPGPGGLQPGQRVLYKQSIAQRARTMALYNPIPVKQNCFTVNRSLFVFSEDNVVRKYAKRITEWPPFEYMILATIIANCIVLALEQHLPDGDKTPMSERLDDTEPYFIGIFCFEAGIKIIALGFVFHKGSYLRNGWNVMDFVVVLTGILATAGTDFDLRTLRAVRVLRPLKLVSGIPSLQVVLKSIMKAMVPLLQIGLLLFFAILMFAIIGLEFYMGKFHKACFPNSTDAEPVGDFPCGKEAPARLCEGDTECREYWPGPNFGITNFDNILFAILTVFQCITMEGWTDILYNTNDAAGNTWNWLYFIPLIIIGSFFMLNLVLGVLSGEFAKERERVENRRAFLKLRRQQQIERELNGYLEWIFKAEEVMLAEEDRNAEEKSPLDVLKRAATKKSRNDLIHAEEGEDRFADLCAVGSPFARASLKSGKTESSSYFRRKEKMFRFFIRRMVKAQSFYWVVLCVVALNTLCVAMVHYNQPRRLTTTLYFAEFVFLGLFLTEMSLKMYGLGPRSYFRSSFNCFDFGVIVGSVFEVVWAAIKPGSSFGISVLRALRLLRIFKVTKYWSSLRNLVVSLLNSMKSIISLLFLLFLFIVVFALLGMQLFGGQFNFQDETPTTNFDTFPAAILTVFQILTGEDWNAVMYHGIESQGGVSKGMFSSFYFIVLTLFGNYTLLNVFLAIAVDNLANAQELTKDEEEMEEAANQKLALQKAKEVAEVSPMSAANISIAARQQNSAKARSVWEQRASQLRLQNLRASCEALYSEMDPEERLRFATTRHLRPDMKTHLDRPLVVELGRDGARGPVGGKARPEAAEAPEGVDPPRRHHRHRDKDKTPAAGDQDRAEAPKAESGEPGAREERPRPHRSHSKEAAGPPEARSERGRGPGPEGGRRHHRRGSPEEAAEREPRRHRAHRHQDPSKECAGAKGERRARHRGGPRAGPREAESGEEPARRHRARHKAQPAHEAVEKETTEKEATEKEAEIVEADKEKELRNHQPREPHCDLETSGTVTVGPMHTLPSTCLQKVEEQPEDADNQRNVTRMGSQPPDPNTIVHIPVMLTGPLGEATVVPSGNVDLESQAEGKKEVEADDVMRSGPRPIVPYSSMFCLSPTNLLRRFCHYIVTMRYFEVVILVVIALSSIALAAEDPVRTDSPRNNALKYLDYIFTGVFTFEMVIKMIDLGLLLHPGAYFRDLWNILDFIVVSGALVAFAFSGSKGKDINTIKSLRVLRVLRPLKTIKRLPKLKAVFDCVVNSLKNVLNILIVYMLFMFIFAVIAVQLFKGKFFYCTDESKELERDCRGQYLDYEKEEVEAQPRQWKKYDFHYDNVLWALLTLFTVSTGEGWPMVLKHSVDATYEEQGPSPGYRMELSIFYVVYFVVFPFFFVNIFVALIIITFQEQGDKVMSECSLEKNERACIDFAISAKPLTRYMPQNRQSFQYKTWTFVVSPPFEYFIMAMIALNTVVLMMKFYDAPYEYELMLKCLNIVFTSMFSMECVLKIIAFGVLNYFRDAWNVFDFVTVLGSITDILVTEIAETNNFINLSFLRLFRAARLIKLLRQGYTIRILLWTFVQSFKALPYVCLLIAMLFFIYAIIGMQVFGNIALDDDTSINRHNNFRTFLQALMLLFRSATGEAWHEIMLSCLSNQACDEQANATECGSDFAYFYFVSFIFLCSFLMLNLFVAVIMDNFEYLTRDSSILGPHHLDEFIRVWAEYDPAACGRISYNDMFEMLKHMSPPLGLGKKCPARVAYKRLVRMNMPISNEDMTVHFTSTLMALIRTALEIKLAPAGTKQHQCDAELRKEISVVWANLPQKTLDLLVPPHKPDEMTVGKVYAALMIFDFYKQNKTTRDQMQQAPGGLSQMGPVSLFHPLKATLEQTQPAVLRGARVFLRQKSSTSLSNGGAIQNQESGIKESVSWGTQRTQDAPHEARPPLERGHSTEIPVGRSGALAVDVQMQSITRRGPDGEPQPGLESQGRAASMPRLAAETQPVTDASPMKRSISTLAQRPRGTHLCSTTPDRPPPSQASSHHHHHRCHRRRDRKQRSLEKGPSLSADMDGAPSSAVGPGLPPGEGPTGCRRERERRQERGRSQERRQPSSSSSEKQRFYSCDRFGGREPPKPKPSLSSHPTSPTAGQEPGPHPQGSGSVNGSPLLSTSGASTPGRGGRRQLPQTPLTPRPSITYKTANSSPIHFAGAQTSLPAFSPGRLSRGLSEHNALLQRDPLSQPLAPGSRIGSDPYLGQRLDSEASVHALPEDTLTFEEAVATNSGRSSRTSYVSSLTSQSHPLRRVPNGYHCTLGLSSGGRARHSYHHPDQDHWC
T1 sequence (P54289 25-956 partner limits assumed): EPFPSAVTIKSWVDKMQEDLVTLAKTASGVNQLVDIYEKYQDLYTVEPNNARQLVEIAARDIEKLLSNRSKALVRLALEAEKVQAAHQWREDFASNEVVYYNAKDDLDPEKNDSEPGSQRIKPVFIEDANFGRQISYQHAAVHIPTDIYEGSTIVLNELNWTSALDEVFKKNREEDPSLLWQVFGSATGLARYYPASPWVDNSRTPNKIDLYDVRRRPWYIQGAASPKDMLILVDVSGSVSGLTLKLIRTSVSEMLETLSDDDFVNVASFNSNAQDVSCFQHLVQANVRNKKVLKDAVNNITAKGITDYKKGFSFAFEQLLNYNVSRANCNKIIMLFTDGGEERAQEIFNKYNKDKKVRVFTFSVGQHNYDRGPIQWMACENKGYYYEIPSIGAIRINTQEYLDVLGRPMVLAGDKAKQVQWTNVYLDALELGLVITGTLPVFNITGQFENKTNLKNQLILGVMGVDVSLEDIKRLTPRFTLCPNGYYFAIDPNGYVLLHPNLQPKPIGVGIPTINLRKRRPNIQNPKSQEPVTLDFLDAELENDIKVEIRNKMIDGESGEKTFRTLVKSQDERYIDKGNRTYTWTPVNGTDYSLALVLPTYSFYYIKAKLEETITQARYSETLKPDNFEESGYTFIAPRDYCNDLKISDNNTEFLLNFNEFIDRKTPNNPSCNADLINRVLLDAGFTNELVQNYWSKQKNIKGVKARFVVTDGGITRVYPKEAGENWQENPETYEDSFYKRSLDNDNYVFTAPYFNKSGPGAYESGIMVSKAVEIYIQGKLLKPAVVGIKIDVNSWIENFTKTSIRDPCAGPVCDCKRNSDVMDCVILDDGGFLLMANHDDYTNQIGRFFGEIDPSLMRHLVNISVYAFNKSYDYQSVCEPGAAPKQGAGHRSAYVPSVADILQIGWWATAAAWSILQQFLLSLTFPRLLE
T1 sequence (P54289 957-1103 partner limits assumed): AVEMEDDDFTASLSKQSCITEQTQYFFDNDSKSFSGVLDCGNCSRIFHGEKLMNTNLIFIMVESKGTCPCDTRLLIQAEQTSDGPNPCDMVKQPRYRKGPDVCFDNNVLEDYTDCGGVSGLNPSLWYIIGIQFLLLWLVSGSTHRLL
T1 sequence (P54284 whole entry partner): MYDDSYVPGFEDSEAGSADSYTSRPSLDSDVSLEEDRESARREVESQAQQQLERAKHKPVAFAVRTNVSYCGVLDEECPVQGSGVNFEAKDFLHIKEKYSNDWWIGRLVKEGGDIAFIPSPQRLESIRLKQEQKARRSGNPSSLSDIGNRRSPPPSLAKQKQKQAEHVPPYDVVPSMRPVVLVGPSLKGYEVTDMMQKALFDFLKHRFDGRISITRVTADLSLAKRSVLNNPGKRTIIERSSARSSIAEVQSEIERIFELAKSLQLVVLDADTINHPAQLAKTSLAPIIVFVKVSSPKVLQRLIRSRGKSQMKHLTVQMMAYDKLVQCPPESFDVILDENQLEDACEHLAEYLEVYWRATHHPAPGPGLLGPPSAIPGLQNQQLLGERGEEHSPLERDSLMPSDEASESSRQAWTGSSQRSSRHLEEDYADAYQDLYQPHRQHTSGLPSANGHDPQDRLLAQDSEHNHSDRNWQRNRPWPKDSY
Type: cell-based
Experimental: (i) In Vitro Methods—Assessment of Calcium Channel Activity Using FLIPR:
IMR32 cells endogenously expressing human Cav2.2 were assayed for Ca^2+ influx using a no-wash calcium indicator dye (Calcium 4 dye: Molecular Probes) and FLIPR technology (Lubin, M. L.; Reitz, T. L.; Todd, M. J.; Flores, C. M.; Qin, N.; Xin, H. Assay and Drug Development Technologies 2006, 4(6), 689-694.). The IMR32 cells were maintained in MEM media containing 10% (v/v) FBS, 1% (v/v) antibiotic/antimitotic, 1% (v/v) sodium pyruvate and 1% (v/v) MEM NEAA. Following dissociation in 0.05% (v/v) trypsin/EDTA, cells were seeded into black 1×96-well plates (Corning Cellbind) at a density of 1−1.2×10^5 cells/well and incubated in the maintenance media above for 48 hours at 37° C. Immediately prior to performing the assay the media was removed and cells were loaded for 1.5 hours with 1×Calcium 4 dye prepared in HBSS (137 mM NaCl, 5.4 mM KCl, 0.25 mM Na2HPO4, 0.44 mM KH2PO4, 1.3 mM CaCl2, 1 mM MgSO4, 4.2 mM NaHCO3) containing HEPES pH 7.4 at room temperature. After dye loading and a subsequent 60 minute pre-incubation with compounds (full log dilutions from 10 μM to 0.1 nM) in the presence of 1.3 mM CaCl2 and 2 μM nifedipine to block endogenous L-type channels, the external Ca^2+ concentration was increased to 5 mM CaCl2 and the cells concomitantly depolarized with 80 mM KCl to assay channel activity. To determine the IC50 values, the percent inhibition of the compound at each concentration was determined relative to the activity in the absence of inhibitor, and data was fitted using non-linear regression sigmoidal dose response curve analysis with GraphPad Prism®.

IC50 [µM]	Compound
6.1	CC(c1cccc(F)c1)[C@@]1(O)CC[C@@H]2CN(c3cccc(C(F)(F)F)n3)C[C@@H]21 (stereo partly drawn) [Example 38, (3aR,4S,6aS)-4-[1-(3-fluorophenyl)ethyl]-2-[6-(trifluoromethyl)pyridin-2-yl]octahydrocyclopenta[c]pyrrol-4-ol]
3.37	CO[C@H]1CC[C@@H]2CN(c3cccc(C(F)(F)F)n3)C[C@@H]21 [Example 40, (3aR,4S,6aS)-4-methoxy-2-[6-(trifluoromethyl)pyridin-2-yl]octahydrocyclopenta[c]pyrrole]
3.32	CCO[C@H]1CC[C@@H]2CN(c3cccc(C(F)(F)F)n3)C[C@@H]21 [Example 41, (3aR,4S,6aS)-4-ethoxy-2-[6-(trifluoromethyl)pyridin-2-yl]octahydrocyclopenta[c]pyrrole]
3.82	CC(C)O[C@H]1CC[C@@H]2CN(c3cccc(C(F)(F)F)n3)C[C@@H]21 [Example 42, (3aR,4S,6aS)-4-isopropoxy-2-[6-(trifluoromethyl)pyridin-2-yl]octahydrocyclopenta[c]pyrrole]
6.01	Fc1cccc(O[C@H]2CC[C@@H]3CN(c4cccc(C(F)(F)F)n4)C[C@@H]32)c1 [Example 44, (3aR,4S,6aS)-4-(3-fluorophenoxy)-2-[6-(trifluoromethyl)pyridin-2-yl]octahydrocyclopenta[c]pyrrole]
8.05	Fc1cccc(CO[C@H]2CC[C@@H]3CN(c4cccc(C(F)(F)F)n4)C[C@@H]32)c1 [Example 45, (3aR,4S,6aS)-4-[(3-fluorobenzyl)oxy]-2-[6-(trifluoromethyl)pyridin-2-yl]octahydrocyclopenta[c]pyrrole]
8.41	Fc1cccc(CCO[C@H]2CC[C@@H]3CN(c4cccc(C(F)(F)F)n4)C[C@@H]32)c1 [Example 46]
8.83	O[C@]1(c2ccccc2)CC[C@@H]2CN(Cc3ccccc3)C[C@@H]21 [Example 47, (3aR,4R,6aS)-2-benzyl-4-phenyloctahydrocyclopenta[c]pyrrol-4-ol]
2.95	Fc1cccc(O[C@H]2CC[C@@H]3CN(Cc4ccccc4)C[C@@H]32)c1 [Example 48, (3aR,4S,6aS)-2-benzyl-4-(3-fluorophenoxy)octahydrocyclopenta[c]pyrrole]
24.9	C=C1CC[C@@H]2CN(c3cccc(C(F)(F)F)n3)C[C@H]12 [Example 49, (3aS,6aS)-4-methylene-2-[6-(trifluoromethyl)pyridin-2-yl]octahydrocyclopenta[c]pyrrole]
4.3	FC(F)(F)c1cccc(N2C[C@H]3CC[C@H](n4ccnc4)[C@H]3C2)n1 [Example 50, (3aR,4S,6aS)-4-(1H-imidazol-1-yl)-2-[6-(trifluoromethyl)pyridin-2-yl]octahydrocyclopenta[c]pyrrole]
1.39	FC(F)(F)c1cccc(N2C[C@H]3CC[C@H](n4cccn4)[C@H]3C2)n1 [Example 51, (3aR,4S,6aS)-4-(1H-pyrazol-1-yl)-2-[6-(trifluoromethyl)pyridin-2-yl]octahydrocyclopenta[c]pyrrole]
7.39	FC(F)(F)c1cccc(N2C[C@H]3CC[C@H](n4cc(Cl)cn4)[C@H]3C2)n1 [Example 52, (3aR,4S,6aS)-4-(4-chloro-1H-pyrazol-1-yl)-2-[6-(trifluoromethyl)pyridin-2-yl]octahydrocyclopenta[c]pyrrole]
0.66	FC(F)(F)c1cccc(N2C[C@H]3CC[C@H](OC[C@@H]4CCCN4)[C@H]3C2)n1 [Example 53, (3aR,4S,6aS)-4-[(2S)-pyrrolidin-2-ylmethoxy]-2-[6-(trifluoromethyl)pyridin-2-yl]octahydrocyclopenta[c]pyrrole]
11.6	CC(C)(C)OC(=O)N1C[C@H]2CC[C@H](C(=O)Nc3cccc(F)c3)[C@H]2C1 [Example 54]
8.9	O=C(Nc1cccc(F)c1)[C@H]1CC[C@@H]2CN(c3cccc(C(F)(F)F)n3)C[C@@H]21 [Example 56, (3aS,4S,6aS)—N-(3-fluorophenyl)-2-[6-(trifluoromethyl)pyridin-2-yl]octahydrocyclopenta[c]pyrrole-4-carboxamide]
5.79	FC(F)(F)c1cccc(N2C[C@H]3CC[C@H](n4cnc(-c5ccc(Cl)cc5)c4)[C@H]3C2)n1 [Example 57, (3aR,4S,6aS)-4-[4-(4-chlorophenyl)-1H-imidazol-1-yl]-2-[6-(trifluoromethyl)pyridin-2-yl]octahydrocyclopenta[c]pyrrole]
3.15	FC(F)(F)c1cccc(N2C[C@H]3CC[C@H](n4cnc(-c5ccccc5)c4)[C@H]3C2)n1 [Example 58, (3aR,4S,6aS)-4-(4-phenyl-1H-imidazol-1-yl)-2-[6-(trifluoromethyl)pyridin-2-yl]octahydrocyclopenta[c]pyrrole]
1.96	FC(F)(F)c1cccc(N2C[C@H]3CC[C@H](n4cnc5ccccc54)[C@H]3C2)n1 [Example 60, 1-{(3aR,4S,6aS)-2-[6-(trifluoromethyl)pyridin-2-yl]octahydrocyclopenta[c]pyrrol-4-yl}-1H-benzimidazole]
3.57	Cc1nccn1[C@H]1CC[C@@H]2CN(c3cccc(C(F)(F)F)n3)C[C@@H]21 [Example 61, (3aR,4S,6aS)-4-(2-methyl-1H-imidazol-1-yl)-2-[6-(trifluoromethyl)pyridin-2-yl]octahydrocyclopenta[c]pyrrole]
1.03	FC(F)(F)c1cccc(N2C[C@H]3CC[C@H](n4ccnc4-c4ccccc4)[C@H]3C2)n1 [Example 62, (3aR,4S,6aS)-4-(2-phenyl-1H-imidazol-1-yl)-2-[6-(trifluoromethyl)pyridin-2-yl]octahydrocyclopenta[c]pyrrole]
2.78	Cc1cnn([C@H]2CC[C@@H]3CN(c4cccc(C(F)(F)F)n4)C[C@@H]32)c1 [Example 63, (3aR,4S,6aS)-4-(4-methyl-1H-pyrazol-1-yl)-2-[6-(trifluoromethyl)pyridin-2-yl]octahydrocyclopenta[c]pyrrole]
3.6	Fc1cccc2ncn([C@H]3CC[C@@H]4CN(c5cccc(C(F)(F)F)n5)C[C@@H]43)c12 [Example 64, 7-fluoro-1-{(3aR,4S,6aS)-2-[6-(trifluoromethyl)pyridin-2-yl]octahydrocyclopenta[c]pyrrol-4-yl}-1H-benzimidazole]
4.85	FC(F)(F)c1cccc(N2C[C@H]3CC[C@H](n4ncc5ccccc54)[C@H]3C2)n1 [Example 65, 1-{(3aR,4S,6aS)-2-[6-(trifluoromethyl)pyridin-2-yl]octahydrocyclopenta[c]pyrrol-4-yl}-1H-indazole]
5.74	Cc1ccn([C@H]2CC[C@@H]3CN(c4cccc(C(F)(F)F)n4)C[C@@H]32)n1 [Example 66, (3aR,4S,6aS)-4-(3-methyl-1H-pyrazol-1-yl)-2-[6-(trifluoromethyl)pyridin-2-yl]octahydrocyclopenta[c]pyrrole]
4.33	Cc1cn([C@H]2CC[C@@H]3CN(c4cccc(C(F)(F)F)n4)C[C@@H]32)cn1 [Example 67, (3aR,4S,6aS)-4-(4-methyl-1H-imidazol-1-yl)-2-[6-(trifluoromethyl)pyridin-2-yl]octahydrocyclopenta[c]pyrrole]
10.8	O[C@H]1[C@H]2CN(c3cccc(C(F)(F)F)n3)C[C@H]2C[C@H]1n1ccnc1 [Example 68, (3aR,4S,5R,6aS)-5-(1H-imidazol-1-yl)-2-[6-(trifluoromethyl)pyridin-2-yl]octahydrocyclopenta[c]pyrrol-4-ol]
9.15	O[C@H]1[C@H]2CN(c3cccc(C(F)(F)F)n3)C[C@H]2C[C@@H]1n1ccnc1 [Example 69, (3aR,4S,5S,6aS)-5-(1H-imidazol-1-yl)-2-[6-(trifluoromethyl)pyridin-2-yl]octahydrocyclopenta[c]pyrrol-4-ol]
3.09	C[C@]1(NC(=O)[C@@H]2C[C@@H](F)CN2)CC[C@@H]2CN(c3cccc(C(F)(F)F)n3)C[C@@H]21 [Example 70, (4R)-4-fluoro-N-{(3aR,4S,6aS)-4-methyl-2-[6-(trifluoromethyl)pyridin-2-yl]octahydrocyclopenta[c]pyrrol-4-yl}-L-prolinamide]
0.78	CN[C@@H](CC(C)C)C(=O)N[C@@]1(C)CC[C@@H]2CN(c3cccc(C(F)(F)F)n3)C[C@@H]21 [Example 71, N^2-methyl-N-{(3aR,4S,6aS)-4-methyl-2-[6-(trifluoromethyl)pyridin-2-yl]octahydrocyclopenta[c]pyrrol-4-yl}-L-leucinamide]

Compound	IC50 [µM]
CC(C)(C)O[C@H]1CC[C@@H]2CN(c3cccc(C(F)(F)F)n3)C[C@@H]21 [Example 43, (3aR,4S,6aS)-4-tert-butoxy-2-[6-(trifluoromethyl)pyridin-2-yl]octahydrocyclopenta[c]pyrrole]	2.54
O=C(Nc1cccc(F)c1)[C@H]1CC[C@@H]2CNC[C@@H]21 [Example 55, (3aS,4S,6aS)—N-(3-fluorophenyl)octahydrocyclopenta[c]pyrrole-4-carboxamide]	> 30
